Patent publication US20250230193A1, “CYCLIC COMPOUND HAVING SELECTIVE KRAS INHIBITORY EFFECT ON HRAS AND NRAS” (CHUGAI SEIYAKU KABUSHIKI KAISHA, priority 2022, published 2025)

Key:
[1] = target: GDP-bound NRAS wild-type protein (Homo sapiens, UniProt P01111); test: Binding to NRAS by surface plasmon resonance (SPR), Single Cycle Kinetics; conditions: KD ratio NRAS/KRAS, class symbols
[2] = target: GDP-bound HRAS wild-type protein (Homo sapiens, UniProt P01112); test: Binding to HRAS by surface plasmon resonance (SPR), Single Cycle Kinetics; conditions: KD ratio HRAS/KRAS, class symbols
Chain of GDP-bound HRAS wild-type protein (P01112 whole entry): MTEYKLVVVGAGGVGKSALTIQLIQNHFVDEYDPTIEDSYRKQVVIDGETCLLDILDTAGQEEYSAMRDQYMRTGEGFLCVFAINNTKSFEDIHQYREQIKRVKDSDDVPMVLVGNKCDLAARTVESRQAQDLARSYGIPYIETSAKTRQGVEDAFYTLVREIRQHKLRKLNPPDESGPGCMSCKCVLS

Chain of GDP-bound NRAS wild-type protein (P01111 whole entry): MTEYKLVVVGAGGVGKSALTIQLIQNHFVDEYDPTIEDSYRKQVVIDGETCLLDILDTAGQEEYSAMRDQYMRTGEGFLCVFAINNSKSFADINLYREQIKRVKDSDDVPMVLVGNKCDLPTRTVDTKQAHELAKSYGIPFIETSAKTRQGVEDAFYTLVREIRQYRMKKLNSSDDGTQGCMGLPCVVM

Structure (SMILES)	NRAS/KRAS (ratio of KD value with respect to GDP-bound NRAS wild-type protein to KD value with respect to KRAS) [1]	HRAS/KRAS (ratio of KD value with respect to GDP-bound HRAS wild-type protein to KD value with respect to KRAS) [2]
CCO[C@@H]1C[C@H]2C(=O)NC3(CCC3)C(=O)N(C)[C@@H](C3CCCC3)C(=O)N(C)[C@H](C(=O)N(C)CC)CC(=O)N(C)[C@@H](CC(C)C)C(=O)N[C@@H]([C@@H](C)CC)C(=O)N(C)CC(=O)N(C)[C@H]3C/C=C\CCN(C3=O)[C@@H](Cc3ccc(C(F)(F)F)cc3)C(=O)N(C)CC(=O)N[C@@H](CCc3ccc(C(F)(F)F)c(Cl)c3)C(=O)N2C1 [PP2847]	A (a compound having 10 or more and less than 20 is denoted as A)	A (a compound having 10 or more and less than 20 is denoted as A)
CCC[C@H]1C(=O)N[C@@H]([C@@H](C)CC)C(=O)N(C)CC(=O)N(C)[C@H]2C/C=C\CCN(C2=O)[C@@H](Cc2ccc(C(F)(F)F)cc2)C(=O)N(C)CC(=O)N[C@@H](CCc2ccc(CC)c(Cl)c2)C(=O)N2C[C@H](OCC)C[C@H]2C(=O)NC2(CC(C)(C)C2)C(=O)N(C)[C@@H](C2CCCC2)C(=O)N(C)[C@H](C(=O)N(C)C)CC(=O)N1C [PP2848]	A (a compound having 10 or more and less than 20 is denoted as A)	A (a compound having 10 or more and less than 20 is denoted as A)
CCC[C@H]1C(=O)N[C@@H]([C@@H](C)CC)C(=O)N(C)CC(=O)N(C)[C@H]2C/C=C\CCN(C2=O)[C@@H](Cc2ccc(C(F)(F)F)cc2)C(=O)N(C)CC(=O)N[C@@H](CCc2cc(F)c3c(c2)CCC3)C(=O)N2C[C@H](OCC)C[C@H]2C(=O)NC2(CC(C)(C)C2)C(=O)N(C)[C@@H](C2CCCC2)C(=O)N(C)[C@H](C(=O)N(C)C)CC(=O)N1C [PP2849]	A (a compound having 10 or more and less than 20 is denoted as A)	A (a compound having 10 or more and less than 20 is denoted as A)
CCC[C@H]1C(=O)N[C@@H]([C@@H](C)CC)C(=O)N(C2CC2)CC(=O)N(C)[C@H]2C/C=C\CCN(C2=O)[C@@H](Cc2ccc(C)cc2)C(=O)N(C)CC(=O)N[C@@H](CCc2ccc(C(F)(F)F)c(CC)c2)C(=O)N2C[C@H](OCC)C[C@H]2C(=O)NC2(CC(C)(C)C2)C(=O)N(C)[C@@H](C2CCCC2)C(=O)N(C)[C@H](C(=O)N(C)C)CC(=O)N1C [PP2870]	A (a compound having 10 or more and less than 20 is denoted as A)	A (a compound having 10 or more and less than 20 is denoted as A)
CCC[C@H]1C(=O)N[C@@H]([C@@H](C)CC)C(=O)N(C)CC(=O)N(C)[C@H]2C/C=C\CCN(C2=O)[C@@H](Cc2ccc(C(F)(F)F)cc2)C(=O)N(C)CC(=O)N[C@@H](CCc2cc(Cl)c3sccc3c2)C(=O)N2C[C@H](OCC)C[C@H]2C(=O)NC2(CC(C)(C)C2)C(=O)N(C)[C@@H](C(CC)CC)C(=O)N(C)[C@H](C(=O)N(C)C)CC(=O)N1C [PP2888]	AA (a compound having 20 or more is denoted as AA)	A (a compound having 10 or more and less than 20 is denoted as A)
CCC[C@H]1C(=O)N[C@@H]([C@@H](C)CC)C(=O)N(C)CC(=O)N(C)[C@H]2C/C=C\CCN(C2=O)[C@@H](Cc2ccc(C(F)(F)F)cc2)C(=O)N(C)CC(=O)N[C@@H](CCc2ccc3sc(C)c(C)c3c2)C(=O)N2C[C@H](OCC)C[C@H]2C(=O)NC2(CC(C)(C)C2)C(=O)N(C)[C@@H](C2CCCC2)C(=O)N(C)[C@H](C(=O)N(C)C)CC(=O)N1C [PP2889]	A (a compound having 10 or more and less than 20 is denoted as A)	A (a compound having 10 or more and less than 20 is denoted as A)
CCC[C@H]1C(=O)N[C@@H]([C@@H](C)CC)C(=O)N(C)CC(=O)N(C)[C@H]2C/C=C\CCN(C2=O)[C@@H](Cc2ccc(C)cc2)C(=O)N(C)CC(=O)N[C@@H](CCc2cc(Cl)c3sccc3c2)C(=O)N2C[C@H](OCC)C[C@H]2C(=O)NC2(CC(C)(C)C2)C(=O)N(C)[C@@H](C(CC)CC)C(=O)N(C)[C@H](C(=O)N(C)C)CC(=O)N1C [PP2890]	AA (a compound having 20 or more is denoted as AA)	A (a compound having 10 or more and less than 20 is denoted as A)
CCC[C@H]1C(=O)N[C@@H]([C@@H](C)CC)C(=O)N(C)CC(=O)N(C)[C@H]2C/C=C\CCN(C2=O)[C@@H](Cc2ccc(C)cc2)C(=O)N(C)CC(=O)N[C@@H](CCc2ccc3sc(C)c(C)c3c2)C(=O)N2C[C@H](OCC)C[C@H]2C(=O)NC2(CC(C)(C)C2)C(=O)N(C)[C@@H](C2CCCC2)C(=O)N(C)[C@H](C(=O)N(C)C)CC(=O)N1C [PP2891]	A (a compound having 10 or more and less than 20 is denoted as A)	B (a compound having 3 or more and less than 10 is denoted as B)
CCC[C@H]1C(=O)N[C@@H]([C@@H](C)CC)C(=O)N(C)CC(=O)N(C)[C@H]2C/C=C\CCN(C2=O)[C@@H](Cc2ccc(C(F)(F)F)cc2)C(=O)N(C)CC(=O)N[C@@H](CCc2ccc3sc(F)c(C)c3c2)C(=O)N2C[C@H](OCC)C[C@H]2C(=O)NC2(CC(C)(C)C2)C(=O)N(C)[C@@H](C(CC)CC)C(=O)N(C)[C@H](C(=O)N(C)C)CC(=O)N1C [PP2892]	A (a compound having 10 or more and less than 20 is denoted as A)	A (a compound having 10 or more and less than 20 is denoted as A)
CCC[C@H]1C(=O)N[C@@H]([C@@H](C)CC)C(=O)N(C)CC(=O)N(C)[C@H]2C/C=C\CCN(C2=O)[C@@H](Cc2ccc(C(F)(F)F)cc2)C(=O)N(C)CC(=O)N[C@@H](CCc2ccc3c(C)c(C)n(C)c3c2)C(=O)N2C[C@H](OCC)C[C@H]2C(=O)NC2(CC(C)(C)C2)C(=O)N(C)[C@@H](C2CCCC2)C(=O)N(C)[C@H](C(=O)N(C)C)CC(=O)N1C [PP2893]	A (a compound having 10 or more and less than 20 is denoted as A)	A (a compound having 10 or more and less than 20 is denoted as A)
CCC[C@H]1C(=O)N[C@@H]([C@@H](C)CC)C(=O)N(C)CC(=O)N(C)[C@H]2C/C=C\CCN(C2=O)[C@@H](Cc2ccc(C)cc2)C(=O)N(C)CC(=O)N[C@@H](CCc2ccc3sc(F)c(C)c3c2)C(=O)N2C[C@H](OCC)C[C@H]2C(=O)NC2(CC(C)(C)C2)C(=O)N(C)[C@@H](C(CC)CC)C(=O)N(C)[C@H](C(=O)N(C)C)CC(=O)N1C [PP2894]	AA (a compound having 20 or more is denoted as AA)	A (a compound having 10 or more and less than 20 is denoted as A)
CCC[C@H]1C(=O)N[C@@H]([C@@H](C)CC)C(=O)N(C)CC(=O)N(C)[C@H]2C/C=C\CCN(C2=O)[C@@H](Cc2ccc(C)cc2)C(=O)N(C)CC(=O)N[C@@H](CCc2ccc3c(C)c(C)n(C)c3c2)C(=O)N2C[C@H](OCC)C[C@H]2C(=O)NC2(CC(C)(C)C2)C(=O)N(C)[C@@H](C2CCCC2)C(=O)N(C)[C@H](C(=O)N(C)C)CC(=O)N1C [PP2895]	A (a compound having 10 or more and less than 20 is denoted as A)	A (a compound having 10 or more and less than 20 is denoted as A)
CCC[C@H]1C(=O)N[C@@H]([C@@H](C)CC)C(=O)N(C)CC(=O)N(C)[C@H]2C/C=C\CCN(C2=O)[C@@H](Cc2ccc(C(F)(F)F)cc2)C(=O)N(C)CC(=O)N[C@@H](CCc2ccc3c(C)cn(C)c3c2)C(=O)N2C[C@H](OCC)C[C@H]2C(=O)NC2(CC(C)(C)C2)C(=O)N(C)[C@@H](C2CCCC2)C(=O)N(C)[C@H](C(=O)N(C)C)CC(=O)N1C [PP2897]	A (a compound having 10 or more and less than 20 is denoted as A)	B (a compound having 3 or more and less than 10 is denoted as B)
CCC[C@H]1C(=O)N[C@@H]([C@@H](C)CC)C(=O)N(C)CC(=O)N(C)[C@H]2C/C=C\CCN(C2=O)[C@@H](Cc2ccc(C)cc2)C(=O)N(C)CC(=O)N[C@@H](CCc2cc(Cl)c3c(ccn3C)c2)C(=O)N2C[C@H](OCC)C[C@H]2C(=O)NC2(CC(C)(C)C2)C(=O)N(C)[C@@H](C(CC)CC)C(=O)N(C)[C@H](C(=O)N(C)C)CC(=O)N1C [PP2898]	A (a compound having 10 or more and less than 20 is denoted as A)	A (a compound having 10 or more and less than 20 is denoted as A)
CCC[C@H]1C(=O)N[C@@H]([C@@H](C)CC)C(=O)N(C)CC(=O)N(C)[C@H]2C/C=C\CCN(C2=O)[C@@H](Cc2ccc(C)cc2)C(=O)N(C)CC(=O)N[C@@H](CCc2ccc3c(C)cn(C)c3c2)C(=O)N2C[C@H](OCC)C[C@H]2C(=O)NC2(CC(C)(C)C2)C(=O)N(C)[C@@H](C2CCCC2)C(=O)N(C)[C@H](C(=O)N(C)C)CC(=O)N1C [PP2899]	A (a compound having 10 or more and less than 20 is denoted as A)	B (a compound having 3 or more and less than 10 is denoted as B)
CCC[C@H]1C(=O)N[C@@H]([C@@H](C)CC)C(=O)N(C)CC(=O)N(C)[C@H]2C/C=C\CCN(C2=O)[C@@H](Cc2ccc(C(F)(F)F)cc2)C(=O)N(C)CC(=O)N[C@@H](CCc2ccc3sc(C)c(C)c3c2)C(=O)N2C[C@H](OCC)C[C@H]2C(=O)NC2(CC(C)(C)C2)C(=O)N(C)[C@@H](C(CC)CC)C(=O)N(C)[C@H](C(=O)N(C)C)CC(=O)N1C [PP2900]	AA (a compound having 20 or more is denoted as AA)	A (a compound having 10 or more and less than 20 is denoted as A)
